# Reference: BindingDB's records for doi:10.1124/jpet.105.084830 (University of Tokyo, 2005)
# Key:
# Bile salt export pump [1] = target: T1, Bile salt export pump (Rattus norvegicus, UniProt O70127)
# T1 sequence (O70127 whole entry): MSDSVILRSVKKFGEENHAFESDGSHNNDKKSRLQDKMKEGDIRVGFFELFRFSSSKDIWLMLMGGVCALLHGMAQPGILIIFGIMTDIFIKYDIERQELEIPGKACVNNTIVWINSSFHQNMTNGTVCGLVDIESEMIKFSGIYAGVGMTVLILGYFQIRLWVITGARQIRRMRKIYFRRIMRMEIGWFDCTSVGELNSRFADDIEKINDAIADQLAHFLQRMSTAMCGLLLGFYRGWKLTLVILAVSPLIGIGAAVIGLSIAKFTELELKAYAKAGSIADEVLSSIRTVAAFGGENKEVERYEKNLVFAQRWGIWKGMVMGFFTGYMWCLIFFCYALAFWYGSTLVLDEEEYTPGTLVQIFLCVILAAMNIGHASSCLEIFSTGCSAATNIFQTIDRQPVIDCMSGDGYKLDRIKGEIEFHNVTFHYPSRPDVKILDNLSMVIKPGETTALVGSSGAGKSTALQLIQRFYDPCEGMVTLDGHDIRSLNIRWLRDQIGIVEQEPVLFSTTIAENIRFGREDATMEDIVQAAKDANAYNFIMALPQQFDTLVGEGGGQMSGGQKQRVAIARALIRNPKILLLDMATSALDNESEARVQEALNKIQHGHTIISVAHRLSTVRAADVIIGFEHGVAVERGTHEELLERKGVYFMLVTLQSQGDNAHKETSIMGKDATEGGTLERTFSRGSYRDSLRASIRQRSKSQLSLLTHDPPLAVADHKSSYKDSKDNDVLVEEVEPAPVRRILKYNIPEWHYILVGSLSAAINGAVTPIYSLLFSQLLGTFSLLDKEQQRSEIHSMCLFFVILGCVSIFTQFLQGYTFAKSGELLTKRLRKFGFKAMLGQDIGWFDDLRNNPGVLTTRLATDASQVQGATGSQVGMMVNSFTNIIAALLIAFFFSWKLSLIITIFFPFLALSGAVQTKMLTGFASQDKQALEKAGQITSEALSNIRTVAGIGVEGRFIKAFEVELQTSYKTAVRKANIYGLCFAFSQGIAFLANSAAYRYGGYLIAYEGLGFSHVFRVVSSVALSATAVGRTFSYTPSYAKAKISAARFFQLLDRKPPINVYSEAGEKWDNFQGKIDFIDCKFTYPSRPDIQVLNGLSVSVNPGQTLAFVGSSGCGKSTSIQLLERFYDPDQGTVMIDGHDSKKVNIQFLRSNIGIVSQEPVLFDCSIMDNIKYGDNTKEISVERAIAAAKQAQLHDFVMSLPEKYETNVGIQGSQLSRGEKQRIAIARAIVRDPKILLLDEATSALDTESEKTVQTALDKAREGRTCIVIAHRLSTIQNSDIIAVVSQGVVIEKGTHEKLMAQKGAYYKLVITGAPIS
# Bile salt export pump [2] = target: Bile salt export pump (Homo sapiens, UniProt O95342)
# Sequence of Bile salt export pump (Homo sapiens, UniProt O95342) (O95342 whole entry): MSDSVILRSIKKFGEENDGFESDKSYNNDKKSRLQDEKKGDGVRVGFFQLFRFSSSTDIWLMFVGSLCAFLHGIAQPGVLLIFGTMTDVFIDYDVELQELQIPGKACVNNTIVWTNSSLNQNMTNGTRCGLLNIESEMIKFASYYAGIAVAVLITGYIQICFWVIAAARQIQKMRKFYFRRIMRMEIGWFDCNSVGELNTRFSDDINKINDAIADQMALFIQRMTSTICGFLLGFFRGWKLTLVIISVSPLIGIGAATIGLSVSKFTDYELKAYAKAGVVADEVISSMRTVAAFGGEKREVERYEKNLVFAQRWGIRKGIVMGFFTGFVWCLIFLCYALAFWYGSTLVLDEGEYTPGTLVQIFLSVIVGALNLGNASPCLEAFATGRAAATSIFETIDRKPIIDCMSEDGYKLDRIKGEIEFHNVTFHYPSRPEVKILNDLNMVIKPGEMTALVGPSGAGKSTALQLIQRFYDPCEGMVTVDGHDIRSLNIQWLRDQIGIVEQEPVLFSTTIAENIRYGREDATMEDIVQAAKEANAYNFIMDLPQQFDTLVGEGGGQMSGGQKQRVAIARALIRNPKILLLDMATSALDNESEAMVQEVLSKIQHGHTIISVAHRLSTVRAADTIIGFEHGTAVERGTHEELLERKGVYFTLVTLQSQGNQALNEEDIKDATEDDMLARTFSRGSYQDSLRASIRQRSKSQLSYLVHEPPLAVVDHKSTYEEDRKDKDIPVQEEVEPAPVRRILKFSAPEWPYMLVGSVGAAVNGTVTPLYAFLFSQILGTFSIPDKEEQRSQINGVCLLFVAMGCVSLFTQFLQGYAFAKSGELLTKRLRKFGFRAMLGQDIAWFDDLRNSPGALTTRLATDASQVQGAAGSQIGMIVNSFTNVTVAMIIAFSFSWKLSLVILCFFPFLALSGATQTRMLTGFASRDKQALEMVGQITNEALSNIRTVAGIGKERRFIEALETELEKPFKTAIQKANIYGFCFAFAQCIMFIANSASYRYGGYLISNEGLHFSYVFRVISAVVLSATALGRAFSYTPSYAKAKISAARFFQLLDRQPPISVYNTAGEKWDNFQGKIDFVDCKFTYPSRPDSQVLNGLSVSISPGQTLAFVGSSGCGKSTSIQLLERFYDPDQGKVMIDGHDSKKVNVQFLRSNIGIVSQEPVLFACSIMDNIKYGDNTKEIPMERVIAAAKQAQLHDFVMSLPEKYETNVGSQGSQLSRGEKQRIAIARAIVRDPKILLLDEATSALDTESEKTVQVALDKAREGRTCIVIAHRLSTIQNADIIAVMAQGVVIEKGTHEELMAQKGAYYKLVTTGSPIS
SMILES,Ki (Bile salt export pump [1]),Ki (Bile salt export pump [2])
"CCC(C)(C)C(=O)O[C@H]1C[C@@H](C)C=C2C=C[C@H](C)[C@H](CC[C@@H]3C[C@@H](O)CC(=O)O3)[C@H]21 [2,2-dimethylbutyric acid, 8-ester with (4R,6R)-6-(2-((1S,2S,6R,8S,8aR)-1,2,6,7,8,8a-hexahydro-8-hydroxy-2,6-dimethyl-1-naphthyl)ethyl)tetrahydro-4-hydroxy-2H-pyran-2-one]",> 10 µM,–
"CC[C@H](C)C(=O)O[C@H]1C[C@H](O)C=C2C=C[C@H](C)[C@H](CC[C@@H](O)C[C@@H](O)CC(=O)O)[C@H]21 [(3R,5R)-7-[(1S,2S,6S,8S,8aR)-6-hydroxy-2-methyl-8-{[(2S)-2-methylbutanoyl]oxy}-1,2,6,7,8,8a-hexahydronaphthalen-1-yl]-3,5-dihydroxyheptanoic acid]",> 10 µM,> 10 µM
"COCc1c(C(C)C)nc(C(C)C)c(/C=C/[C@@H](O)C[C@@H](O)CC(=O)O)c1-c1ccc(F)cc1 [(3R,5S,6E)-7-[4-(4-fluorophenyl)-5-(methoxymethyl)-2,6-bis(propan-2-yl)pyridin-3-yl]-3,5-dihydroxyhept-6-enoic acid]",> 10 µM,–
CC(C)n1c(/C=C/[C@@H](O)C[C@@H](O)CC(=O)O)c(-c2ccc(F)cc2)c2ccccc21 [CAS_93957-54-1],> 10 µM,–
O=C(O)C[C@H](O)C[C@H](O)/C=C/c1c(C2CC2)nc2ccccc2c1-c1ccc(F)cc1 [CAS_147511-69-1],> 10 µM,> 10 µM
CCC(C)(C)C(=O)O[C@H]1C[C@@H](C)C=C2C=C[C@H](C)[C@H](CC[C@@H](O)C[C@@H](O)CC(=O)O)[C@H]21 [Simvastatin acid],> 10 µM,> 10 µM

# Other lines, results leading:
Ki (Bile salt export pump [1]),Ki (Bile salt export pump [2]),SMILES
> 10 µM,> 10 µM,CC(C)c1nc(N(C)S(C)(=O)=O)nc(-c2ccc(F)cc2)c1/C=C/[C@@H](O)C[C@@H](O)CC(=O)O
> 10 µM,> 10 µM,CC(C)c1c(C(=O)Nc2ccccc2)c(-c2ccccc2)c(-c2ccc(F)cc2)n1CC[C@@H]1C[C@@H](O)CC(=O)O1
7.57 µM,–,CC(C)c1c(C(=O)Nc2ccccc2)c(-c2ccccc2)c(-c2ccc(F)cc2)n1CC[C@@H](O)C[C@@H](O)CC(=O)O [CI 981]
